Tests used:
BV2 microglia = assay: Nitric oxide production (nitrite, Griess reaction) by LPS plus IFNγ activated BV2 microglia; assay type: cell-based, mouse; details: LPS 100 ng/mL + IFNγ 50 pg/mL, 24 h
Method: BV2 cells are a murine microglial-derived cell line widely used as in vitro model for the study of compounds that could modulate microglial mediated neuronal damage. When stimulated, BV2 microglia releases neurotoxic and neuroinflammatory factors such as tumor necrosis factor alpha (TNFα), interleukin 6 (IL6) or nitric oxide (NO).
The mouse microglial cell line BV-2 was purchased at the Istituto Nazionale per la Ricerca sul Cancro (1ST, Genova, Italy). BV-2 cells were cultured in RPMI-1640 medium (Gibco Invitrogen, Paisley, Scotland, UK) supplemented with 10% FBS and 0.1% penicillin-streptomycin (both from Gibco Invitrogen). Cells were maintained at 37° C. in a 5% CO2 humidified atmosphere. BV-2 microglial cells were seeded at a density of 5×10^4 cells/mL. The following day, cells were treated with the compound of formula (I), the compound of formula (II) or the combination of both compounds, 30 minutes before stimulation with LPS 100 ng/mL and gamma-interferon (IFNγ) 50 pg/mL (both from Sigma-Aldrich, St. Louis, Mo., USA). Control wells contained the same final concentration of vehicle as the compound-containing wells. Culture supernatants were collected 24 h after LPS/IFNγ stimulation and stored at −20° C. until assayed for nitrites analysis.
Nitrite levels, direct indicators of NO production, were quantified by the Griess reaction. Briefly, 50 μL of culture medium was mixed in a 96-well plate with 25 μL of Griess reagent A (sulfanilamide, Sigma-Aldrich) and 25 μL of reagent B (N-1-naphthyl ethylene-diamine, Sigma-Aldrich). After color development (10 min at 23 to 25° C.), samples were measured at 540 nm on a microplate reader (BioTek ELX800, BioTek Instruments Inc., Vermont, USA). Nitrite concentration was determined from a sodium nitrite standard curve. Values of at least three independent wells from three experiments were calculated.
The compound of formula (I) was oleanolic acid (4.44 mg/L), the compound of formula (II) was verbascoside (3.12 mg/L), and the combination of the compound of formula (I) and the compound of formula (II) comprised oleanolic acid (4.44 mg/L) and verbascoside (3.12 mg/L). Stock solutions of the compounds (50 mM) were prepared in dimethyl sulfoxide (DMSO, Sigma-Aldrich). Solutions for cell treatment were prepared by diluting stock solutions in culture media immediately before being added to the cells (DMSO concentration: 0.5%). Controls contained the same final concentration of vehicle as the compound-containing wells. Three independent experiments were carried out.
The procedures for this assay were as described above in Example 2, wherein the compound of formula (I) was maslinic acid (13.20 mg/L), the compound of formula (II) was verbascoside (3.12 mg/L), and the and the combination of the compound of formula (I) and the compound of formula (II) comprised maslinic acid (13.20 mg/L) and verbascoside (3.12 mg/L). Stock solutions of the compounds (50 mM) were prepared in dimethyl sulfoxide (DMSO, Sigma-Aldrich). Solutions for cell treatment were prepared by diluting stock solutions in culture media immediately before being added to the cells (DMSO concentration: 0.5%). Controls contained the same final concentration of vehicle as the compound-containing wells. Three independent experiments were performed.

NSC34 motor neurons = assay: NSC34 motor neuron viability (MTT) after hydrogen peroxide insult; assay type: cell-based, murine; details: H2O2 0.2 mM 30 min, MTT after 24 h
Excerpt: NSC34 murine spinal cord motor neuron derived cell line was used for this assay. This neuronal cell line is a classical in vitro platform validated for the study of neuroprotective agents. They share a lot of common physiological features with spinal cord neurons such as glutamate sensibility, acetyl choline secretion upon stimulation, functional neurites or characteristic neuronal sensibility and protection mechanisms against neurotoxic agents. Motoneuronal NSC-34 cells (Cedarlane, Burlington, Ontario, Canada) were cultured at 37° C. and 5% CO2 in Dulbecco's modified Eagle's medium (DMEM) supplemented with 10% fetal bovine serum (FBS), 1% penicillin/streptomycin and 0.04 mM L-glutamine. All reagents were purchased at Gibco-Invitrogen. NSC34 cells were seeded at low density (30000 cel/mL) in appropriate tissue culture vessels, 24-well plates for toxicity assays. In the experiments, cells were pretreated for 2 h with the compound of formula (I) (oleanolic acid, 4.44 mg/L), the compound of formula (II) (hydroxytyrosol, 1.54 mg/L) or the combination of the compound of formula (I) (oleanolic acid, 4.44 mg/L) and the compound of formula (II) (hydroxytyrosol, 1.54 mg/L). Stock solutions of the compounds (50 mM) were prepared in dimethylsulfoxide (DMSO, Sigma-Aldrich). Solutions for cell treatment were prepared by diluting stock solutions in culture media immediately before being added to the cells (DMSO concentration: 0.5%). Controls contained the same final concentration of vehicle as the compound-containing wells. Hydrogen peroxide (H2O2) stock was a 30% solution in water (Aldrich). The medium was removed and replaced with a suitable volume of fresh DMEM plus FBS (Gibco). Small hydrogen peroxide aliquots were then added to a final concentration of 0.2 mM. Cells were then exposed for 30 min at 37° C. After this time the medium was removed and replaced with fresh one. The compounds were maintained in the medium for 24 hours. After this 24 hours cell viability was tested using the 3-[4,5-dimethylthiazol-2-yl]-2,5-diphenyltetrazolium bromide (MTT, Sigma) assay. After color development (15 min at 37° C.), samples were measured at 570-620 nm on a microplate reader (BioTek ELX800, BioTek Instruments Inc., Vermont, USA). Mean values of at least three independent wells from three experiments were calculated, and cell survival expressed as percent […] signal compared with untreated control conditions.

[1] = oleanolic acid 4.44 mg/L alone, listed as OLA

Question: How did the “BV2 NO reduction (vs. LPS + IFNγ)” value (BV2 microglia; verbascoside 3.12 mg/L alone) turn out when `C[C@@H]1O[C@@H](O[C@@H]2[C@@H](O)[C@H](OCCc3ccc(O)c(O)c3)O[C@H](CO)[C@H]2OC(=O)/C=C/c2ccc(O)c(O)c2)[C@H](O)[C@H](O)[C@H]1O` [verbascoside] was run?
Answer: Its value is 14.67%.

Question: What about the “BV2 NO reduction (vs. LPS + IFNγ)” value (BV2 microglia; verbascoside 3.12 mg/L alone, listed as VRB) of the same compound?
Answer: Its value is 14.67%.

Question: `OCCc1ccc(O)c(O)c1` [hydroxytyrosol, 2-(3,4-dihydroxyphenyl)ethanol] was tested. Which “NSC34 survival increase (vs. H2O2)” value (NSC34 motor neurons; hydroxytyrosol 1.54 mg/L alone) did it give?
Answer: Its value is 21.67%.

Question: What about the “NSC34 survival increase (vs. H2O2)” value (NSC34 motor neurons; hydroxytyrosol 1.54 mg/L alone, listed as HST) of the same compound?
Answer: Its value is 21.67%.

Question: `CC1(C)CC[C@]2(C(=O)O)CC[C@]3(C)C(=CC[C@@H]4[C@@]5(C)CC[C@H](O)C(C)(C)[C@@H]5CC[C@]43C)[C@@H]2C1` [oleanolic acid] was tested. Which “BV2 NO reduction (vs. LPS + IFNγ)” value (BV2 microglia; oleanolic acid 4.44 mg/L alone) did it give?
Answer: Its value is 17.33%.

Question: And the “BV2 NO reduction (vs. LPS + IFNγ)” value (BV2 microglia; [1])?
Answer: The value was 17.33%.

Question: And the “NSC34 survival increase (vs. H2O2)” value (NSC34 motor neurons; oleanolic acid 4.44 mg/L alone)?
Answer: The value was 5.33%.

Question: And the “NSC34 survival increase (vs. H2O2)” value (NSC34 motor neurons; [1])?
Answer: The value was 5.33%.

Question: What does the source list for `CC1(C)CC[C@]2(C(=O)O)CC[C@]3(C)C(=CC[C@@H]4[C@@]5(C)C[C@@H](O)[C@H](O)C(C)(C)[C@@H]5CC[C@]43C)[C@@H]2C1` [maslinic acid]?
Answer: BV2 NO reduction (vs. LPS + IFNγ) (BV2 microglia; maslinic acid 13.20 mg/L alone): 18.67%; BV2 NO reduction (vs. LPS + IFNγ) (BV2 microglia; maslinic acid 13.20 mg/L alone, listed as MSA): 18.67%

— patent US10376529B2, “Combination of pentacyclic triterpenes and hydroxytyrosol and derivatives thereof” (NATAC BIOTECH, S.L, priority 2013, dated 2019)
